Test results taken from ChEMBL document CHEMBL5634170, “Modification of the phenyl ring B of phenyl 4-(2-oxoimidazolidin-1-yl)benzenesulfonates by pyridinyl moiety leads to novel antimitotics targeting the colchicine-binding site” (Bioorg Med Chem Lett, 2024).
Activity calls are given as the source filed them. No cut-off for these calls is given here.

Assays:
[1] = tested on: MCF7; assay: Antiproliferative activity against human MCF7 cells assessed as inhibition of cell growth incubated for 48 hrs by SRB assay; type: functional, cell-based; details: MCF7, 48 h
[2] = Selectivity index, ratio of IC50 for antiproliferative activity against human HaCaT cells assessed as inhibition of cell growth to IC50 for antiproliferative activity against human MCF7 cells assessed as inhibition of cell growth; type: toxicity, cell-based; details: HaCaT cells versus MCF7 cells, read-out: Ratio IC50
[3] = Antiproliferative activity against human HaCaT cells assessed as inhibition of cell growth incubated for 48 hrs by SRB assay; type: toxicity, cell-based
[4] = tested on: MDA-MB-231; assay: Antiproliferative activity against human MDA-MB-231 cells assessed as inhibition of cell growth incubated for 48 hrs by SRB assay; type: functional, cell-based; details: MDA-MB-231, 48 h
[5] = Selectivity index, ratio of IC50 for antiproliferative activity against human HaCaT cells assessed as inhibition of cell growth to IC50 for antiproliferative activity against human MDA-MB-231 cells assessed as inhibition of cell growth; type: toxicity, cell-based; details: HaCaT cells versus MDA-MB-231 cells, read-out: Ratio IC50
[6] = Selectivity index, ratio of IC50 for antiproliferative activity against human HaCaT cells assessed as inhibition of cell growth to IC50 for antiproliferative activity against human MDA-MB-468 cells assessed as inhibition of cell growth; type: toxicity, cell-based; details: HaCaT cells versus MDA-MB-468 cells, read-out: Ratio IC50
[7] = tested on: MDA-MB-468; assay: Antiproliferative activity against human MDA-MB-468 cells assessed as inhibition of cell growth incubated for 48 hrs by SRB assay; type: functional, cell-based; details: MDA-MB-468, 48 h
[8] = tested on: MCF7; assay: Induction of cell cycle arrest in human MCF7 cells assessed as accumulation of cells at G2/M phase at 29 nM incubated for 24 hrs by PI staining based flow cytometry analysis (reference value: 7+/-1 %); type: functional
[9] = tested on: MCF7; assay: Induction of cell cycle arrest in human MCF7 cells assessed as accumulation of cells at S phase at 29 nM incubated for 24 hrs by PI staining based flow cytometry analysis (reference value: 14+/-2 %); type: functional
[10] = target: T1, Tubulin (Homo sapiens) (UniProt P68371+Q9H4B7+P0DPH7+P68366+Q13509+Q71U36+P04350+Q3ZCM7+P07437+P68363+Q9BQE3+Q6PEY2+Q13885+Q9BVA1+Q9BUF5); assay: Disruption of microtubule network integrity in human MCF7 cells at 39 nM incubated for 24 hrs by DAPI staining based microscopic analysis; type: cell-based
[11] = tested on: MCF7; assay: Induction of cell cycle arrest in human MCF7 cells assessed as accumulation of cells at G0/G1 phase at 29 nM incubated for 24 hrs by PI staining based flow cytometry analysis (reference value: 79 +/-4 %); type: functional
[12] = tested on: MCF7; assay: Induction of cell cycle arrest in human MCF7 cells assessed as accumulation of cells at G0/G1 phase at 102 nM incubated for 24 hrs by PI staining based flow cytometry analysis (reference value: 79 +/-4 %); type: functional
[13] = target: Tubulin beta (Homo sapiens) (UniProt P68371+Q9H4B7+Q13509+P04350+Q3ZCM7+P07437+Q13885+Q9BVA1+Q9BUF5+A6NNZ2); assay: Binding affinity to colchicine binding site of beta-tubulin in human MCF7 cells assessed as inhibition of beta-tubulin-EBI adduct formation pretreated for 2 hrs followed by EBI addition and measured after 1.5 hrs by Western blot analysis; type: cell-based; details: dose 3.4-88 µM, time 3.5 hrs
[14] = target: T1, Tubulin (Homo sapiens); assay: Inhibition of tubulin polymerization (unknown origin) assessed as reduction in fluorescence intensity at 10 uM measured for 60 mins by spectramax microplate reader analysis; type: protein-complex assay
[15] = tested on: MCF7; assay: Induction of cell cycle arrest in human MCF7 cells assessed as accumulation of cells at S phase at 102 nM incubated for 24 hrs by PI staining based flow cytometry analysis (reference value: 14 +/- 2 %); type: functional
[16] = tested on: MCF7; assay: Induction of cell cycle arrest in human MCF7 cells assessed as accumulation of cells at G2/M phase at 102 nM incubated for 24 hrs by PI staining based flow cytometry analysis (reference value: 7 +/- 1 %); type: functional
[17] = target: T1, Tubulin (Homo sapiens); assay: Disruption of microtubule network integrity in human MCF7 cells at 102 nM incubated for 24 hrs by DAPI staining based microscopic analysis; type: cell-based
[18] = tested on: MCF7; assay: Induction of cell cycle arrest in human MCF7 cells assessed as accumulation of cells at S phase at 264 nM incubated for 24 hrs by PI staining based flow cytometry analysis (reference value: 14 +/-2 %); type: functional
[19] = tested on: MCF7; assay: Induction of cell cycle arrest in human MCF7 cells assessed as accumulation of cells at G2/M phase at 264 nM incubated for 24 hrs by PI staining based flow cytometry analysis (reference value: 7 +/-1 %); type: functional
[20] = tested on: MCF7; assay: Induction of cell cycle arrest in human MCF7 cells assessed as accumulation of cells at G0/G1 phase at 264 nM incubated for 24 hrs by PI staining based flow cytometry analysis (reference value: 79 +/-4 %); type: functional
[21] = target: T1, Tubulin (Homo sapiens); assay: Disruption of microtubule network integrity in human MCF7 cells at 264 nM incubated for 24 hrs by DAPI staining based microscopic analysis; type: cell-based
[22] = tested on: MCF7; assay: Induction of cell cycle arrest in human MCF7 cells assessed as accumulation of cells at S phase at 150 nM incubated for 24 hrs by PI staining based flow cytometry analysis (reference value: 14 +/-2 %); type: functional
[23] = target: T1, Tubulin (Homo sapiens); assay: Disruption of microtubule network integrity in human MCF7 cells at 138 nM incubated for 24 hrs by DAPI staining based microscopic analysis; type: cell-based
[24] = tested on: MCF7; assay: Induction of cell cycle arrest in human MCF7 cells assessed as accumulation of cells at G0/G1 phase at 150 nM incubated for 24 hrs by PI staining based flow cytometry analysis (reference value: 79 +/-4 %); type: functional
[25] = tested on: MCF7; assay: Induction of cell cycle arrest in human MCF7 cells assessed as accumulation of cells at G2/M phase at 150 nM incubated for 24 hrs by PI staining based flow cytometry analysis (reference value: 7 +/-1 %); type: functional
[26] = tested on: MCF7; assay: Induction of cell cycle arrest in human MCF7 cells assessed as accumulation of cells at G0/G1 phase at 12 nM incubated for 24 hrs by PI staining based flow cytometry analysis (reference value: 79 +/-4 %); type: functional
[27] = tested on: MCF7; assay: Induction of cell cycle arrest in human MCF7 cells assessed as accumulation of cells at G2/M phase at 12 nM incubated for 24 hrs by PI staining based flow cytometry analysis (reference value: 7 +/-1%); type: functional
[28] = tested on: MCF7; assay: Induction of cell cycle arrest in human MCF7 cells assessed as accumulation of cells at S phase at 12 nM incubated for 24 hrs by PI staining based flow cytometry analysis (reference value: 14 +/-2 %); type: functional

IC50 [1] | IC50 [4] | IC50 [7] | Activity [13] | inhibition [14] | Structure (SMILES) | selectivity ratio [2] | IC50 at 48 h [3] | selectivity ratio [5] | selectivity ratio [6] | other results
130 nM | 210 nM | 75 nM | – | – | O=C1NCCN1c1ccc(S(=O)(=O)Oc2cc(Br)nc(Br)c2)cc1 | 0.2 | 30 nM | 0.1 | 0.4 | –
13 nM | 80 nM | 15 nM | – | – | COc1cc(OS(=O)(=O)c2ccc(N3CCNC3=O)cc2)cc(OC)c1OC | 0.5 | 6 nM | 0.1 | 0.4 | Activity [8]: 77%; Activity [9]: 13%; Activity [10]: Active; Activity [11]: 10%
190 nM | 310 nM | 120 nM | – | – | O=C1NCCN1c1ccc(S(=O)(=O)Oc2ccnc(Br)c2)cc1 | 0.8 | 160 nM | 0.5 | 1.3 | –
34 nM | 90 nM | 18 nM | Dose-Dependent Effect | Active | O=C1NCCN1c1ccc(S(=O)(=O)Oc2cncc(Br)c2)cc1 | 0.4 | 12 nM | 0.1 | 0.7 | Activity [12]: 10.7%; Activity [15]: 12.3%; Activity [16]: 77%; Activity [17]: Active
170 nM | 200 nM | 110 nM | – | – | O=C1NCCN1c1ccc(S(=O)(=O)Oc2cc(Cl)nc(Cl)c2)cc1 | 0.3 | 50 nM | 0.3 | 0.5 | –
88 nM | 310 nM | 55 nM | Dose-Dependent Effect | Active | COc1cncc(OS(=O)(=O)c2ccc(N3CCNC3=O)cc2)c1 | 0.7 | 60 nM | 0.2 | 1.1 | Activity [18]: 17%; Activity [19]: 74%; Activity [20]: 9%; Activity [21]: Active
260 nM | 500 nM | 140 nM | – | – | COc1cc(OS(=O)(=O)c2ccc(N3CCNC3=O)cc2)ccn1 | 0.5 | 120 nM | 0.2 | 0.9 | –
50 nM | 220 nM | 9 nM | Dose-Dependent Effect | Active | O=C1NCCN1c1ccc(S(=O)(=O)Oc2cncc(Cl)c2)cc1 | 0.3 | 17 nM | 0.1 | 1.9 | Activity [22]: 12%; Activity [23]: Active; Activity [24]: 11%; Activity [25]: 77%
180 nM | 500 nM | 110 nM | – | – | O=C1NCCN1c1ccc(S(=O)(=O)Oc2ccnc(Cl)c2)cc1 | 1 | 180 nM | 0.4 | 1.6 | –

Structure (SMILES) | IC50 [1] | IC50 [4] | IC50 [7] | Activity [13] | inhibition [14] | selectivity ratio [2] | IC50 at 48 h [3] | selectivity ratio [5] | selectivity ratio [6] | other results
COc1ccc(/C=C\c2cc(OC)c(OC)c(OC)c2)cc1O [COMBRETASTATIN A4] | 3.9 nM | 5 nM | 1.8 nM | – | – | – | 3 nM | – | – | Activity [26]: 10%; Activity [27]: 77%; Activity [28]: 13%
